From the supplement of paper PMC5908809

How the values were obtained:
[1] = tested on: NK-92 (IL-2 2.5 ng/mL); experiment: drug sensitivity score (DSS) (DSS units); higher = more sensitive; extreme values may be limits of the assay; conditions: 72 h
[2] = tested on: normal primary NK cells, pool 1 (3 donors) (IL-2 2.5 ng/mL); experiment: as above; conditions: 72 h
[3] = tested on: normal primary NK cells, pool 3 (3 donors) (IL-2 2.5 ng/mL); experiment: as above; conditions: 72 h
[4] = tested on: IMC-1 (IL-2 20 ng/mL); experiment: as above; conditions: 72 h
[5] = tested on: normal primary NK cells, pool 2 (3 donors) (IL-2 2.5 ng/mL); experiment: as above; conditions: 72 h
[6] = tested on: NKL (IL-2 2.5 ng/mL); experiment: as above; conditions: 72 h
[7] = tested on: KAI3 (IL-2 2.5 ng/mL); experiment: as above; conditions: 72 h
[8] = tested on: normal primary NK cells, pool 1 (3 donors), resting (IL-2 0 ng/mL); experiment: as above; conditions: 72 h
[9] = tested on: SNK-6 (IL-2 2.5 ng/mL); experiment: as above; conditions: 72 h
[10] = tested on: DERL-7 (IL-2 2.5 ng/mL); experiment: as above; conditions: 72 h
[11] = tested on: YT (IL-2 2.5 ng/mL); experiment: as above; conditions: 72 h
[12] = tested on: NK-YS (IL-2 2.5 ng/mL); experiment: as above; conditions: 72 h
[13] = tested on: KHYG-1 (IL-2 2.5 ng/mL); experiment: as above; conditions: 72 h
[14] = tested on: NK-92 (IL-2 2.5 ng/mL); experiment: percent inhibition of viability; higher = more inhibition; conditions: 72 h
[15] = tested on: normal primary NK cells, pool 1 (3 donors) (IL-2 2.5 ng/mL); experiment: as above; conditions: 72 h
[16] = tested on: normal primary NK cells, pool 3 (3 donors) (IL-2 2.5 ng/mL); experiment: as above; conditions: 72 h
[17] = tested on: IMC-1 (IL-2 20 ng/mL); experiment: as above; conditions: 72 h
[18] = tested on: normal primary NK cells, pool 2 (3 donors) (IL-2 2.5 ng/mL); experiment: as above; conditions: 72 h
[19] = tested on: NKL (IL-2 2.5 ng/mL); experiment: as above; conditions: 72 h
[20] = tested on: KAI3 (IL-2 2.5 ng/mL); experiment: as above; conditions: 72 h
[21] = tested on: normal primary NK cells, pool 1 (3 donors), resting (IL-2 0 ng/mL); experiment: as above; conditions: 72 h
[22] = tested on: SNK-6 (IL-2 2.5 ng/mL); experiment: as above; conditions: 72 h
[23] = tested on: DERL-7 (IL-2 2.5 ng/mL); experiment: as above; conditions: 72 h
[24] = tested on: YT (IL-2 2.5 ng/mL); experiment: as above; conditions: 72 h
[25] = tested on: NK-YS (IL-2 2.5 ng/mL); experiment: as above; conditions: 72 h
[26] = tested on: KHYG-1 (IL-2 2.5 ng/mL); experiment: as above; conditions: 72 h
[27] = tested on: normal NK cells expanded with K562-aAPC; experiment: as above; conditions: 72 h, IL-2 2.5 ng/mL
Method: (§1)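 Drug sensitivity and resistance testing on K562-aAPC-expanded normal NK cells: 5 concentrations (10-fold steps over a 10,000-fold range), 72 h at 37 °C, viability by CellTiter-Glo normalised to DMSO and benzethonium chloride controls; DSS from the fitted curve.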

[28] = tested on: normal NK cells expanded with K562-aAPC; experiment: drug sensitivity score (DSS) (DSS units); higher = more sensitive; extreme values may be limits of the assay; conditions: 72 h; IL-2 2.5 ng/mL
Method: as §1

COc1ccc(C[C@H](NC(=O)[C@H](C)NC(=O)CN2CCOCC2)C(=O)N[C@@H](Cc2ccccc2)C(=O)C2(C)CO2)cc1 (stereo in doubt) [ONX-0914] (max concentration tested 10000 nM)
Conditions	drug sensitivity score
[1]	31.6
[2]	30.5
[3]	26.7
[4]	21.7
[5]	30.7
[6]	30.9
[7]	32.9
[8]	31.9
[9]	25.6
[10]	32.7
[11]	26.3
[12]	28.6
[13]	22.3
[28]	24.8

percent inhibition of viability [%]
Conditions	1 nM	10 nM	100 nM	1000 nM	10000 nM
[14]	-8.67	15.8	93.1	106	102
[15]	-4.25	8.47	92.5	100	100
[16]	-6.21	2.14	73.6	99.9	100
[17]	2.14	-0.04	24.1	100	101
[18]	-9.54	18.2	87.2	99.6	99.8
[19]	10.8	1.76	103	106	102
[20]	12.7	28.5	93.7	106	102
[21]	-25.3	21.3	91	96.4	97.3
[22]	-1.52	17.8	58.1	101	101
[23]	6.02	28.7	92.2	101	101
[24]	-1.7	3.7	69.5	104	101
[25]	13.1	15.9	75	105	102
[26]	-0.77	1.13	29.1	104	101
[27]	6.48	5.84	57.1	101	101

COc1cc2c(cc1O)CC[C@@H]1[C@@H]2CC[C@]2(C)[C@@H](O)CC[C@@H]12 [2-methoxyestradiol] (max concentration tested 10000 nM)
Conditions	drug sensitivity score
[1]	21.1
[2]	1.6
[3]	0
[4]	12.8
[5]	0.33
[6]	17.5
[7]	9.37
[8]	1.87
[9]	14
[10]	14.2
[11]	15.9
[12]	15
[13]	17.6
[28]	4.38

percent inhibition of viability [%]
Conditions	1 nM	10 nM	100 nM	1000 nM	10000 nM
[14]	-11.8	-5.92	24.8	96.2	92.4
[15]	-5.08	0.22	-0.63	10	19.8
[16]	-10.4	-14	-8.74	-10.1	2.72
[17]	-3.9	0.72	-4.99	63.4	98.5
[18]	-5.21	-10.5	-5.24	0.1	16.3
[19]	-3.96	-6.41	12.5	85.8	90.6
[20]	-6.2	-3.7	1.79	50	57.4
[21]	-17.5	-7.16	17.8	3.53	29.8
[22]	15.9	5.08	4.83	72.8	66.2
[23]	-1.82	1.54	2.89	73.2	98.9
[24]	-5.93	2.82	1.11	86.5	92.7
[25]	-6.42	-2.65	5.43	77.6	66
[26]	-6.84	-2.25	-0.37	97.8	97.9
[27]	-7.6	-11.6	-10.8	9.36	53

Nc1ncnc2c1nc(N)n2[C@@H]1O[C@H](CO)[C@@H](O)[C@H]1O [8-amino-adenosine] (max concentration tested 50000 nM)
Conditions	drug sensitivity score
[1]	25
[2]	8.3
[3]	8.22
[4]	20.1
[5]	9.73
[6]	25.6
[7]	26.6
[8]	4.92
[9]	32.5
[10]	24.3
[11]	21.3
[12]	22
[13]	21.4
[28]	22.2

percent inhibition of viability [%]
Conditions	5 nM	50 nM	500 nM	5000 nM	50000 nM
[14]	-19.1	-2.94	59.2	106	109
[15]	2.12	-9.21	1.92	26.5	81.2
[16]	-13.3	-8.61	10.2	31	84.2
[17]	-2.9	-0.37	12.2	101	101
[18]	-14.7	-1.95	0.14	36.1	88.7
[19]	-18.8	6.72	63	107	109
[20]	-12.9	-1.89	75.4	104	106
[21]	-6.09	-20.9	-6.28	5.09	75.2
[22]	24.4	39.9	75.8	99	101
[23]	-0.37	-2.93	51.5	101	101
[24]	-0.2	1.01	20.2	102	110
[25]	-5.77	-1.64	26	102	108
[26]	-1.34	-2.24	21.2	105	109
[27]	-1.82	3.86	28.5	101	101
